Experimental data from US11390609B2, “Rho-associated protein kinase inhibitor, pharmaceutical composition comprising same, and preparation method and use thereof” (BEIJING TIDE PHARMACEUTICAL CO., LTD., priority 2017, dated 2022).

Biological target: ROCK1 (Homo sapiens (Human), UniProt Q13464)
Assay: ROCK1 kinase IC50 assay (biological test method similar to the ROCK2 assay)
Type: biochemical
Method: The kinase IC50 was determined by a commercialized CISBIO kinase detection kit, HTRF KinEASE-STK S2 kit (62ST2PEC). ROCK2 (01-119) employed in the reaction was purchased from Carna Biosciences.
Before the assay, the following working solutions as needed were formulated with corresponding reagents according to the instruction of the kinase detection kit: 1×kinase buffer, 5×STK-52 substrate working solution (1.5 μM) and 5×ATP working solution (1.5 μM), 5×ROCK2 kinase working solution, 4×Streptavidin-XL665 working solution, and 4×STK-Ab-Cryptate 2 detection solution. Then the assay was performed according to the following procedure.
A solution of a compound at a concentration of 10000 nM was prepared with the 1×kinase buffer containing 2.5% DMSO. Gradient dilution of the solution of the compound was performed with the kinase buffer containing DMSO, so as to obtain solutions of a test compound at 9 different concentrations. In addition to wells of test compounds, a positive well (containing all the reagents except the compound) and a negative well (containing all the reagents except the test compound and kinase) were set. Except for the control wells (positive and negative wells), a solution of a test compound (4 μL) was added to each of the reaction wells, and a solution of 2.5% DMSO was added to the control wells. Then the substrate ([…], 2 μL. 5×STK-S2 substrate working solution) was added to each of the reaction wells. The 5×ROCK2 kinase working solution (2 μL, containing 1.4 ng ROCK2 kinase) was added to each of the reaction wells except for the negative well, the volume of which was made up with the 1×kinase buffer (2 μL). The 5×ATP working solution (2 μL) was added to each of the reaction wells, and the mixtures were incubated at room temperature for 2 hours. After the kinase reaction was complete, the 4×Streptavidin-XL665 working solution was added to each of the reaction wells, the solutions were mixed, followed by immediate addition of the 4×STK-Ab-Cryptate 2 detection solution (5 μL), and the mixtures were incubated at room temperature for 1 hour. The fluorescence signal was read on ENVISION (Perkinelmer) (excitation wavelength: 320 nm, and emission wavelength: 665 nm and 615 nm). The inhibitory rate in each well was calculated based on the fluorescence intensity value: ER (Emission Ratio)=(fluorescence intensity at 665 nm/fluorescence intensity at 615 nm); inhibitory rate=(ERpositive−ERtest compound)/(ERpositive−ERnegative)*100%. Curves were plotted and fitted to obtain the median inhibitory concentration (IC50) of each teat compound with the PRISM 5.0 software.
According to a biological test method similar to the above, the IC50 values of the compounds on ROCK1 were tested.

ROCK1, sequence (Q13464 whole entry, species assumed): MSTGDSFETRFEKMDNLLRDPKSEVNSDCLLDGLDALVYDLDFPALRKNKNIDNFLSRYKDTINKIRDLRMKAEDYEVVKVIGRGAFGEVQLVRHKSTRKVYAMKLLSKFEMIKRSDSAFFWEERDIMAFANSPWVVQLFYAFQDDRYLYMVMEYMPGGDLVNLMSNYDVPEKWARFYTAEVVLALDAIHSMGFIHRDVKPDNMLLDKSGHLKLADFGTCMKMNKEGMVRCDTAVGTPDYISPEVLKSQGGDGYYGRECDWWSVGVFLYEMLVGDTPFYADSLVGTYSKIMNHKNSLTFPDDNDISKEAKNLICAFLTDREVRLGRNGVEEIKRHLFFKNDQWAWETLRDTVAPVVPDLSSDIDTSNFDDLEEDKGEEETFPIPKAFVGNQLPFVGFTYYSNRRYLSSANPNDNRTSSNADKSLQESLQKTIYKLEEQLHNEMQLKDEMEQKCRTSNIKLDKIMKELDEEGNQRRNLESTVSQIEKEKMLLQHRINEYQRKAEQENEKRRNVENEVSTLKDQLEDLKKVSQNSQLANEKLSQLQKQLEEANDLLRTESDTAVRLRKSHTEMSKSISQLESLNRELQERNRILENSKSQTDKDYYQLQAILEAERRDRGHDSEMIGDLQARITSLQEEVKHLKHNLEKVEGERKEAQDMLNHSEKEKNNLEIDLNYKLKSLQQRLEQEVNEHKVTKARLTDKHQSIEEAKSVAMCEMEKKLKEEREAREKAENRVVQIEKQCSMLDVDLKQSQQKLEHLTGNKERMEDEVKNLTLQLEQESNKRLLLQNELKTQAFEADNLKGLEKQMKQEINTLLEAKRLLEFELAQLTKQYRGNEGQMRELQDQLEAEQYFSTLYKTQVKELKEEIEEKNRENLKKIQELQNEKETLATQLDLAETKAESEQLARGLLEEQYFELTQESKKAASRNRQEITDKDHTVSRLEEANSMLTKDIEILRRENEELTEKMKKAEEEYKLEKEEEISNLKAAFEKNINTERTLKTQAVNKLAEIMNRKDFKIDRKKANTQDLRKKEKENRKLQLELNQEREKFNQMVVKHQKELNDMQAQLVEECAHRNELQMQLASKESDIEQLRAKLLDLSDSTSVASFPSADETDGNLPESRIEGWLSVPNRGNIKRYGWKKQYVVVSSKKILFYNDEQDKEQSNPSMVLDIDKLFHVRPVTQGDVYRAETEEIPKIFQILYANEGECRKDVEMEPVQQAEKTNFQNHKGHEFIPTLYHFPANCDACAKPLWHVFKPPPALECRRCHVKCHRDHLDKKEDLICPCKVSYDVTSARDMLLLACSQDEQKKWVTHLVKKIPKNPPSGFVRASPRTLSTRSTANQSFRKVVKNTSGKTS

Row | Structure (SMILES) | IC50
1 | O=C(NC1CCOC1)c1cc2ccc(-c3nccc(Nc4ccc(-c5cn[nH]c5)cc4)n3)cc2[nH]1 (centres unmarked) [TDI01337, 6-(4-((4-(1H-pyrazol-4-yl)phenyl)-amino)-pyrimidin-2-yl)-N-(tetrahydro-furan-3-yl)-1H-indole-2-carboxamide] | 2.76 µM
2 | O=C(NC1CCOCC1)c1cc2ccc(-c3nccc(Nc4ccc(-c5cn[nH]c5)cc4)n3)cc2[nH]1 [TDI01338, 6-(4-((4-(1H-pvrazol-4-yl)phenyl)-amino)-pyrimidin-2-yl)-N-(tetrahydro-2H-pyran-4-yl)-1H-indole-2-carboxamide] | 1.8 µM
3 | CN1CCN(C(=O)c2cc3ccc(-c4nccc(Nc5ccc(-c6cn[nH]c6)cc5)n4)cc3[nH]2)CC1 [TDI01343, (6-4(-((4-(1H-pyrazol-4-yl)phenyl)-amino)-pyrimidin-2-yl)-1H-indol-2-yl)(4-methyl-piperazin-1-yl)methanone] | 7.11 µM
4 | CN(C(=O)c1cc2ccc(-c3nccc(Nc4ccc(-c5cn[nH]c5)cc4)n3)cc2[nH]1)C(CO)CO [TDI01344-2A, 6-(4-((4-(1H-pyrazol-4-yl)phenyl)-amino)-pyrimidin-2-yl)-N-(1,3-dihydroxy-propan-2-yl)-N-methyl-1H-indole-2-carboxamide] | 4.21 µM
5 | CN(C(=O)c1cc2ccc(-c3nccc(Nc4ccc(-c5cn[nH]c5)cc4)n3)cc2[nH]1)C1CCNC1 (centres unmarked) [TDI01345, 6-(4-((4-(1H-pyrazol-4-yl)phenyl)-amino)-pyrimidin-2-yl)-N-methyl-N-(pyrrolidin-3-yl)-1H-indole-2-carboxamide] | 3.91 µM
6 | CN(C(=O)c1cc2ccc(-c3nccc(Nc4ccc5[nH]ncc5c4)n3)cc2[nH]1)c1ccnnc1 [TDI01347, 6-(4-((1H-indazol-5-yl)amino)-pyrimidin-2-yl)-N-methyl-N-(pyridazin-4-yl)-1H-indole-2-carboxamide] | 5.58 µM
7 | O=C(Nc1ccncc1Cl)c1cc2ccc(-c3nccc(Nc4ccc(-c5cn[nH]c5)cc4)n3)cc2[nH]1 [TDI01354, 6-(4-((4-(1H-pyrazol-4-yl)phenyl)-amino)-pyrimidin-2-yl)-N-(3-chloropyridin-4-yl)-1H-indole-2-caiboxamide] | > 10 µM
8 | CN(CC(F)(F)F)C(=O)c1cc2ccc(-c3nccc(Nc4ccc(-c5cn[nH]c5)cc4)n3)cc2[nH]1 [TDI01355, 6-(4-((4-(1H-pyrazol-4-yl)phenyl)-amino)-pyrimidin-2-yl)-N-methyl-N-(2,2,2-trifluoroethyl)-1H-indole-2-carboxamide] | > 10 µM

Continued, values first:

Row | IC50 | Structure (SMILES)
9 | > 10 µM | O=C(Nc1ccncc1)c1cc2ccc(-c3nccc(Nc4ccc(-c5cn[nH]c5)cc4)n3)cc2[nH]1 [TDI01363, 6-(4-((4-(1H-pyrazol-4-yl)phenyl)-amino)-pyrimidin-2-yl)-N-(pyridin-4-yl)-1H-indole-2-carboxamide]
10 | > 10 µM | CN(C)C(=O)N1Cc2ccc(-c3nccc(Nc4ccc(-c5cn[nH]c5)cc4)n3)cc2C1 [TDI01366, 5-(4-((4-(1H-pyrazol-4-yl)phenyl)amino)pyrimidin-2-yl)-N,N-dimethylisoindoline-2-carboxamide]
11 | 1.49 µM | CC(C)NC(=O)c1cc2ccc(-c3nc(Nc4ccc(-c5cn[nH]c5)cc4)c4sccc4n3)cc2[nH]1 [TDI01370, 6-(4-((4-(1H-pyrazol-4-yl)phenyl)-amino)-thieno[3,2-d]pyrimidin-2-yl)-N-isopropyl-1H-indole-2-carboxamide]
12 | > 10 µM | CNC(=O)c1cc2ccc(-c3nc(Nc4ccc(-c5cn[nH]c5)cc4)c4sccc4n3)cc2[nH]1 [TDI01379, 6-(4-((4-(1H-pyrazol-4-yl)phenyl)-amino)thieno-[3.2-d]-pyrimidin-2-yl)-N-methyl-1H-indole-2-carboxamide]
13 | 4.11 µM | CN(C(=O)c1cc2ccc(-c3nccc(Nc4ccc(-c5cn[nH]c5)cc4)n3)cc2[nH]1)C1CCOCC1 [TDI01381, 6-(4-((4-(1H-pyrazol-4-yl)phenyl)amino)pyrimidin-2-yl)-N-methyl-N-(tetrahydro-2H-pyran-4-yl)-1H-indole-2-carboxamide]
14 | > 10 µM | O=C(Nc1ccncc1)c1cc2ccc(-c3nccc(Nc4ccc(-c5cn[nH]c5)cc4)n3)cc2s1 [TDI01393]
